target: T1, human V1a receptor (Homo sapiens, UniProt P37288); assay: Human vasopressin V1a receptor binding assay; conditions: hV1a cell line (CHO), competition with 1 nM 3H-AVP, 45 minutes at 37° C.; read-out: V1a BINDING AFFINITY (IC50 (nM))
T1 construct: host or cells: CHO cells
Experimental: Human Vasopression V1a Receptor Binding Assay.
A cell line expressing the human V1a receptor in CHO cells (henceforth referred to as the hV1a cell line) was obtained from Dr. Michael Brownstein, NIMH, Bethesda, Md., USA. The hV1a cDNA sequence is described by Thibonnier et al., Journal of Biological Chemistry, 269, 3304-3310 (1994), and the expression method was the same as described by Morel et al. (1992). The hV1a cell line was grown in alpha-MEM with 10% fetal bovine serum and 250 ug/ml G418 (Gibco, Grand Island, N.Y., USA). For competitive binding assay, hV1a cells were plated into 6-well culture plate at 1:10 dilution from a confluency flask, and maintained in culture for at least two days. Culture medium was then removed, cells were washed with 2 ml binding buffer (25 mM Hepes, 0.25% BSA, 1×DMEM, PH=7.0). To each well, 990 μl binding buffer containing 1 nM 3H-AVP was added, and followed by 10 μl series diluted Example compounds dissolved in DMSO. […] 100 nM cold AVP (Sigma) was used to assess non-specific binding. Cells were incubated for 45 minutes at 37° C., assay mixture was removed and each well was washed three times with PBS (pH=7.4). 1 ml 2% SDS was added per well and plates were let sit for 30 minutes. The whole content in a well was transferred to a scintillation vial. Each well was rinsed with 0.5 ml PBS which was then added to the corresponding vial. Scintillation fluid (Ecoscint, National Diagnostics, Atlanta, Ga.) was then added at 3 ml per vial. Samples were counted in a liquid scintillation counter (Beckman LS3801). IC50 values were calculated by Prism Curve fitting software.
All of the alkanedioic esters and amides exemplified in the foregoing examples were tested in this assay described of Example 201.

T1 sequence (P37288 whole entry): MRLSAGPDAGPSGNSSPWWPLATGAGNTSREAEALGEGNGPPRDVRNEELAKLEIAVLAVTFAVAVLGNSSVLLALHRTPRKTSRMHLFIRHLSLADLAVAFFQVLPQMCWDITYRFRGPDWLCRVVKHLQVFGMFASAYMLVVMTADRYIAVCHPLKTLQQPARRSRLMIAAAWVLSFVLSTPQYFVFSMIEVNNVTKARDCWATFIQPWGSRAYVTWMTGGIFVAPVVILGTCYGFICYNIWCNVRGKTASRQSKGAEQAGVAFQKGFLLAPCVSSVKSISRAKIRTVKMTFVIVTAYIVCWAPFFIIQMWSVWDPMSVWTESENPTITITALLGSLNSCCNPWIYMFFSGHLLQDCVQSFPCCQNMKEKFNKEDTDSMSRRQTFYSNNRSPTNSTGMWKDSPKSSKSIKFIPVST

IC50	Compound
< 100 nM	O=C(NCc1cccc(C(F)(F)F)c1)[C@H](CC(=O)N1CCN(CCN2CCCC2)CC1)N1C(=O)[C@@H](N2C(=O)OC[C@@H]2c2ccccc2)[C@H]1/C=C/c1ccccc1 [Example 78]
1.85 nM	CC(C)N1CCN(C(=O)CCC(C(=O)NCc2cccc(C(F)(F)F)c2)N2C(=O)C(N3C(=O)OCC3c3ccccc3)C2C=Cc2ccccc2)CC1 (single isomer, unassigned) [Example 104]
< 20 nM	CC(C)N1CCN(C(=O)C(C(=O)NCc2cccc(C(F)(F)F)c2)N2C(=O)[C@@H](N3C(=O)OC[C@@H]3c3ccccc3)[C@H]2/C=C/c2ccccc2)CC1 (mixture of isomers) [Example 41]
< 20 nM	O=C(NCc1cccc(C(F)(F)F)c1)C(C(=O)N1CCN(C2CCCCC2)CC1)N1C(=O)[C@@H](N2C(=O)OC[C@@H]2c2ccccc2)[C@H]1/C=C/c1ccccc1 (mixture of isomers) [Example 42]
< 100 nM	O=C(NCc1cccc(C(F)(F)F)c1)[C@H](CC(=O)N1CCN(C2CCCC2)CC1)N1C(=O)[C@@H](N2C(=O)OC[C@@H]2c2ccccc2)[C@H]1/C=C/c1ccccc1 [Example 77]
< 100 nM	CCCCN1CCN(C(=O)C[C@@H](C(=O)NCc2cccc(C(F)(F)F)c2)N2C(=O)[C@@H](N3C(=O)OC[C@@H]3c3ccccc3)[C@H]2/C=C/c2ccccc2)CC1 [Example 59]
11 nM	O=C(NCc1cccc(C(F)(F)F)c1)[C@@H](CCC(=O)N1CCN(CCc2ccccc2)CC1)N1C(=O)[C@@H](N2C(=O)OC[C@@H]2c2ccccc2)[C@H]1/C=C/c1ccccc1 [Example 136]
~100 nM	O=C(CC[C@@H](C(=O)NCc1cccc(C(F)(F)F)c1)N1C(=O)[C@@H](N2C(=O)OC[C@@H]2c2ccccc2)[C@H]1/C=C/c1ccccc1)NCc1cccnc1 [Example 109]
1.31 nM	O=C(NCc1cccc(C(F)(F)F)c1)[C@H](CCC(=O)N1CCN(CCC2CCCCC2)CC1)N1C(=O)[C@@H](N2C(=O)OC[C@@H]2c2ccccc2)[C@H]1/C=C/c1ccccc1 [Example 111]
< 50 nM	O=C(CC[C@@H](C(=O)NCc1cccc(C(F)(F)F)c1)N1C(=O)[C@@H](N2C(=O)OC[C@@H]2c2ccccc2)[C@H]1/C=C/c1ccccc1)NC1CCN(Cc2ccccc2)CC1 [Example 107]
15 nM	O=C(CC[C@@H](C(=O)NCc1cccc(C(F)(F)F)c1)N1C(=O)[C@@H](N2C(=O)OC[C@@H]2c2ccccc2)[C@H]1/C=C/c1ccccc1)NCCN1CCCCC1 [Example 87]
4.35 nM	O=C(NCc1cccc(C(F)(F)F)c1)[C@H](CCC(=O)N1CCN(Cc2ccc3c(c2)OCO3)CC1)N1C(=O)[C@@H](N2C(=O)OC[C@@H]2c2ccccc2)[C@H]1/C=C/c1ccccc1 [Example 96]
5.5 nM	O=C(NCc1cccc(C(F)(F)F)c1)C(C(=O)N1CCC(N2CCCCC2)CC1)N1C(=O)[C@@H](N2C(=O)OC[C@@H]2c2ccccc2)[C@H]1/C=C/c1ccccc1 (mixture of isomers) [Example 37]
< 100 nM	CCN(CC)CCN1CCN(C(=O)C[C@@H](C(=O)NCc2cccc(C(F)(F)F)c2)N2C(=O)[C@@H](N3C(=O)OC[C@@H]3c3ccccc3)[C@H]2/C=C/c2ccccc2)CC1 [Example 81]
11 nM	CCCCN1CCN(C(=O)C(C(=O)NCc2cccc(C(F)(F)F)c2)N2C(=O)[C@@H](N3C(=O)OC[C@@H]3c3ccccc3)[C@H]2/C=C/c2ccccc2)CC1 (mixture of isomers) [Example 40]
< 100 nM	CN(C)CCNC(=O)CC[C@@H](C(=O)NCc1cccc(C(F)(F)F)c1)N1C(=O)[C@@H](N2C(=O)OC[C@@H]2c2ccccc2)[C@H]1/C=C/c1ccccc1 [Example 100]
~50 nM	O=C(NCc1cccc(C(F)(F)F)c1)[C@H](CC(=O)N1CCN(C2CCCCC2)CC1)N1C(=O)[C@@H](N2C(=O)OC[C@@H]2c2ccccc2)[C@H]1/C=C/c1ccccc1 [Example 66]

IC50	Compound
9.5 nM	O=C(NCc1cccc(C(F)(F)F)c1)[C@@H](CCC(=O)N1CCN(C2CCCCC2)CC1)N1C(=O)[C@@H](N2C(=O)OC[C@@H]2c2ccccc2)[C@H]1/C=C/c1ccccc1 [Example 139]
3.24 nM	O=C(NCc1cccc(C(F)(F)F)c1)[C@H](CCC(=O)N1CCN(N2CCCC2)CC1)N1C(=O)[C@@H](N2C(=O)OC[C@@H]2c2ccccc2)[C@H]1/C=C/c1ccccc1 [Example 91]
21 nM	CC(C)N1CCN(C(=O)CC[C@H](C(=O)NCc2cccc(C(F)(F)F)c2)N2C(=O)[C@@H](N3C(=O)OC[C@@H]3c3ccccc3)[C@H]2/C=C/c2ccccc2)CC1 [Example 138]
~50 nM	O=C(NCc1cccc(C(F)(F)F)c1)[C@@H](CCC(=O)N1CCC(N2CCCCC2)CC1)N1C(=O)[C@@H](N2C(=O)OC[C@@H]2c2ccccc2)[C@H]1/C=C/c1ccccc1 [Example 135]
5.87 nM	O=C(C[C@@H](C(=O)NCc1cccc(C(F)(F)F)c1)N1C(=O)[C@@H](N2C(=O)OC[C@@H]2c2ccccc2)[C@H]1/C=C/c1ccccc1)N[C@H]1CCN(Cc2ccccc2)C1 [Example 85]
1.76 nM	O=C(NCc1cccc(C(F)(F)F)c1)[C@H](CCC(=O)N1CCN(Cc2ccccc2)CC1)N1C(=O)[C@@H](N2C(=O)OC[C@@H]2c2ccccc2)[C@H]1/C=C/c1ccccc1 [Example 95]
< 100 nM	CN1CCC(N2CCN(C(=O)CC[C@@H](C(=O)NCc3cccc(C(F)(F)F)c3)N3C(=O)[C@@H](N4C(=O)OC[C@@H]4c4ccccc4)[C@H]3/C=C/c3ccccc3)CC2)CC1 [Example 102]
0.81 nM	CCCCN1CCN(C(=O)CCC(C(=O)NCc2cccc(C(F)(F)F)c2)N2C(=O)C(N3C(=O)OCC3c3ccccc3)C2C=Cc2ccccc2)CC1 (single isomer, unassigned) [Example 103]
1.84 nM	O=C(C[C@@H](C(=O)NCc1cccc(C(F)(F)F)c1)N1C(=O)[C@@H](N2C(=O)OC[C@@H]2c2ccccc2)[C@H]1/C=C/c1ccccc1)NC1CCN(Cc2ccccc2)CC1 [Example 63]
< 50 nM	O=C(NCc1cccc(C(F)(F)F)c1)[C@H](CC(=O)N1CCCN(Cc2ccccc2)CC1)N1C(=O)[C@@H](N2C(=O)OC[C@@H]2c2ccccc2)[C@H]1/C=C/c1ccccc1 [Example 82]
23 nM	O=C(NCc1cccc(C(F)(F)F)c1)C(C(=O)NC1CCN(Cc2ccccc2)CC1)N1C(=O)[C@@H](N2C(=O)OC[C@@H]2c2ccccc2)[C@H]1/C=C/c1ccccc1 (mixture of isomers) [Example 39]
< 25 nM	O=C(NCc1cccc(C(F)(F)F)c1)C(C(=O)N1CCN(CCc2ccccc2)CC1)N1C(=O)[C@@H](N2C(=O)OC[C@@H]2c2ccccc2)[C@H]1/C=C/c1ccccc1 (mixture of isomers) [Example 38]
1.34 nM	O=C(NCc1cccc(C(F)(F)F)c1)[C@H](CCC(=O)N1CCN(CCN2CCOCC2)CC1)N1C(=O)[C@@H](N2C(=O)OC[C@@H]2c2ccccc2)[C@H]1/C=C/c1ccccc1 [Example 112]
~100 nM	CN(C)CCN(Cc1ccccc1)C(=O)CC[C@@H](C(=O)NCc1cccc(C(F)(F)F)c1)N1C(=O)[C@@H](N2C(=O)OC[C@@H]2c2ccccc2)[C@H]1/C=C/c1ccccc1 [Example 108]
17 nM	CCCCN1CCN(C(=O)CC[C@H](C(=O)NCc2cccc(C(F)(F)F)c2)N2C(=O)[C@@H](N3C(=O)OC[C@@H]3c3ccccc3)[C@H]2/C=C/c2ccccc2)CC1 [Example 137]
0.75 nM	O=C(NCc1cccc(C(F)(F)F)c1)[C@H](CCC(=O)N1CCN(CC2CCCCC2)CC1)N1C(=O)[C@@H](N2C(=O)OC[C@@H]2c2ccccc2)[C@H]1/C=C/c1ccccc1 [Example 120]
~100 nM	CN(C)CCCNC(=O)CC[C@@H](C(=O)NCc1cccc(C(F)(F)F)c1)N1C(=O)[C@@H](N2C(=O)OC[C@@H]2c2ccccc2)[C@H]1/C=C/c1ccccc1 [Example 106]

Compound	IC50
CC(C)(C)OC(=O)CC[C@@H](C(=O)NCc1cccc(C(F)(F)F)c1)N1C(=O)[C@@H](N2C(=O)OC[C@@H]2c2ccccc2)[C@H]1/C=C/c1ccccc1 [Example 20, 2(S)-(tert-Butoxycarbonylethyl)-2-[3(S)-(4(S)-phenyloxazolidin-2-on-3-yl)-4(R)-(2-styryl)azetidin-2-on-1-yl]acetic acid N-(3-trifluoromethylbenzyl)amide]	35 nM
CC(C)(C)OC(=O)C(C(=O)NCc1cccc(C(F)(F)F)c1)N1C(=O)[C@@H](N2C(=O)OC[C@@H]2c2ccccc2)[C@H]1/C=C/c1ccccc1 (mixture of isomers) [Example 18, 2(RS)-(tert-Butoxycarbonyl)-2-[3(S)-(4(S)-phenyloxazolidin-2-on-3-yl)-4(R)-(2-styryl)azetidin-2-on-1-yl]acetic acid N-(3-trifluoromethylbenzyl)amide]	35 nM
CC(C)(C)OC(=O)C[C@@H](C(=O)NCc1cccc(C(F)(F)F)c1)N1C(=O)[C@@H](N2C(=O)OC[C@@H]2c2ccccc2)[C@H]1/C=C/c1ccccc1 [Example 19, 2(S)-(tert-Butoxycarbonylmethyl)-2-[3(S)-(4(S)-phenyloxazolidin-2-on-3-yl)-4(R)-(2-styryl)azetidin-2-on-1-yl]acetic acid N-(3-trifluoromethylbenzyl)amide]	35 nM

Reference: patent US7268125B2 (Azevan Pharmaceuticals, Inc., priority 2001, dated 2007)
